Read-outs that look alike come from different tables or passages of the source. Residues, ends and D or L forms follow the SMILES beside them.
What was measured:
[1] = target: T1, human thrombin (Homo sapiens, UniProt P00734); assay: Inhibition of human thrombin hydrolysing the chromogenic substrate S-2238 (Ki by Dixon plot); assay type: biochemical
T1 construct: forms a lipoprotein complex with prothrombin (factor II) and cleaves it to form thrombin (factor IIa) itself
Procedure: (a) Inhibition of human thrombin hydrolysing the chromogenic substrate S-2238 (for details of the method, see M. F. Scully and V. V. Kakkar, Clin. Chim. Acta 1977.79.595). Series of measurements were carried out using a number of different inhibitor concentrations and at least two different substrate concentrations. The inhibitory constant Ki was determined graphically, using a Dixon plot (M. Dixon, Biochem. J. 1953.55.170)

[2] = rabbit
[3] = In vivo half life in plasma

Compound	Ki [1] [µM]	in vivo half life in plasma [2] [min]	in vivo half life in plasma [3] [min]
CC(C)(C)OC(=O)N[C@H](Cc1ccccc1)C(=O)N1CCC[C@H]1C(=O)N[C@@H](CCCNC(=N)N)CNCC(=O)N1CCC[C@H]1C(=O)O [Example H-172]	112	–	–
heparin	–	–	15

Continued, values first:

Ki [1] [µM]	in vivo half life in plasma [2] [min]	in vivo half life in plasma [3] [min]	Compound
68	–	–	CCNC(=O)[C@@H]1CCCN1C(=O)CCC(=O)[C@@H](CCCNC(=N)N)NC(=O)[C@@H]1CCCN1C(=O)[C@@H](Cc1ccccc1)NC(=O)OC(C)(C)C [Example H-170]
6	18	–	CCNC(=O)[C@@H]1CCCN1C(=O)CCC(=O)[C@H](CCCNC(=N)N)NC(=O)[C@@H]1CCCN1C(=O)[C@H](N)Cc1ccccc1 [Example H-179]
3	–	–	CCNC(=O)[C@@H](NC(=O)[C@H](CCCNC(=N)N)NC(=O)[C@@H]1CCCN1C(=O)CCC(=O)[C@H](CCCNC(=N)N)NC(=O)[C@@H]1CCCN1C(=O)[C@H](N)Cc1ccccc1)C(C)C [Example H-200] (HELM PEPTIDE1{[dF].P.[N=C(N)NCCC[C@H](N[*:1])C(=O)CCC(=O)[*:2]].P.R.V.[CCN[*:1]]}$$$$V2.0)
